# Columns and labels:
# HepaRG cells = experiment: WST-1 cytotoxicity assay; type: cell-based, human; conditions: WST-1 assay, 72 h incubation
# Description: Wild-type human hepatoma HepaRG cells obtained from Biopredic International (Saint Grégoire, France) were cultivated for 4 weeks in a Binder cell culture incubator maintained at 37 °C in a 5% humidified atmosphere with 5% CO2 before they were employed in this study. The 4 weeks consisted of 2 weeks of proliferation and 2 weeks of differentiation. […]
# Cytotoxicity assays were performed in 96-well plates at a density of 9000 cells per well, and test compounds were incubated for 72 h. […] After the 30-min incubation with WST-1, absorbance was measured at 450 nm corrected by a reference at 620 nm (λexc = 450 nm/λemi = 620 nm) using an Infinite M200 PRO plate reader (Tecan; Männedorf, Switzerland). […] The absorbed dye was quantified by fluorescence measurement (λexc = 530 nm/λemi = 645 nm) on an Infinite M200 PRO plate reader (Tecan; Männedorf, Switzerland). Background corrected viability values of both assays were expressed as a percentage of untreated cells. […] Means and standard deviations for each treatment were calculated. […]
# CYP1A2 = target: T1, CYP1A2 (Homo sapiens, UniProt P05177); experiment: P450-Glo screening system, CYP inhibition; type: biochemical; conditions: recombinant human CYP, luciferin-ME
# T1 construct: purchased Promega
# T1 sequence (P05177 1-516): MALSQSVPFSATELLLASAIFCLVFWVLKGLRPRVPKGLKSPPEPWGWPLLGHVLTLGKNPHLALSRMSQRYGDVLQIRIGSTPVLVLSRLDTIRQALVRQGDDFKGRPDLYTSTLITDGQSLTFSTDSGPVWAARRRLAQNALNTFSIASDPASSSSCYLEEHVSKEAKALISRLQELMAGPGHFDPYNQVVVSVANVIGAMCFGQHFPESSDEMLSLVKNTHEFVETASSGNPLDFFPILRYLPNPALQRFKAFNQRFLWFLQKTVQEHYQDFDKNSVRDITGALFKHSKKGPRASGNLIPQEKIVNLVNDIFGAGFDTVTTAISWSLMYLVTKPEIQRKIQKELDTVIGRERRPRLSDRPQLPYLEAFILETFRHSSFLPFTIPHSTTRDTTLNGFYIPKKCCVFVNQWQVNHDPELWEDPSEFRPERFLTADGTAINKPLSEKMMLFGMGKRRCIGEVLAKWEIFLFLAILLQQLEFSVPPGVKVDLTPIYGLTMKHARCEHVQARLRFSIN
# From the text: (§1) The P450-Glo™ screening systems (Promega; Madison, Wisconsin, USA) were used in this study to explore the inhibitory properties of MDP on the major CYP isoforms involved in xenobiotic metabolism (CYP1A2, CYP2C9, CYP2C19, CYP2D6, and CYP3A4). HepaRG cells were not utilized in this assay to avoid potential cross reactivity since all CYP enzymes are expressed in this cell line. Therefore, this inhibition study relied on recombinant human CYP enzymes integrated in membrane preparation. The principle of the assay is based on the conversion of a luminogenic substrate (100 µM luciferin-ME for CYP1A2, 100 µM luciferin-H for CYP2C9, 50 µM luciferin-H EGE for CYP2C19, 30 µM luciferin-ME EGE for CYP2D6, and 100 µM luciferin-PPXE for CYP3A4) to luciferin by the respective enzyme. The assay was conducted according to the instructions of the supplier. Briefly, eight non-cytotoxic concentrations of MDP or a CYP selective inhibitor were preincubated for 10 min at 37 °C together with the luminogenic substrate, potassium phosphate buffer, and luciferin-free water, and the test compounds were added to white 96-well Costar® plates. After the preincubation, 25 µL of NADPH regeneration system (2.6 mM NADP + , 6.6 mM glucose-6-phosphate, 6.6 mM MgCl2, and 0.8 U/mL glucose-6-phosphate dehydrogenase) was added to each well to initiate CYP reactions. The plates were briefly shaken and taped before they were incubated at 37 °C for 10–30 min depending on the CYP enzyme under investigation. Luminescence of the luciferin product was initiated by adding 50 µL of the luciferin detection reagent. Subsequently, the plates were briefly shaken and then incubated for 20 min at room temperature in order to stabilize the luminescent signal. The luminescence was measured on the Infinite M200 PRO plate reader (Tecan; Männedorf, Switzerland). The measurements were corrected by subtracting the minus P450 control signals from each measurement and represented as changes in luminescence signals (ΔRLU). The ΔRLU values of MDP were compared with the ΔRLU values of the untreated samples and represented as relative changes in luminescence in relation to the control (%). Three independent experiments with three technical replicates were conducted (n = 3). Means and standard deviations for each treatment were calculated before calculating the IC50 values of MDP for each CYP enzyme.
# (§2) A linear mixed-effects ANOVA (α = 0.05) described by Pinheiro and Bates ([2000]) followed by a post-hoc Dunnett test for multiple comparisons of treatment groups versus the control was used for statistical analysis of data from cytotoxicity assay, AdipoRed assay, CYP450 inhibition assay as well as mixture effects. R studio (ver. 4.4.1) was used to determine the effective concentration at relative triglyceride induction fold of 1.5 for each test compound.
# CYP2D6 = target: T2, CYP2D6 (Homo sapiens, UniProt P10635); experiment: P450-Glo screening system, CYP inhibition; type: biochemical; conditions: recombinant human CYP, luciferin-ME EGE
# T2 construct: purchased Promega
# From the text: as §1, §2
# CYP3A4 = target: T3, CYP3A4 (Homo sapiens, UniProt P08684); experiment: P450-Glo screening system, CYP inhibition; type: biochemical; conditions: recombinant human CYP, luciferin-PPXE
# T3 construct: purchased Promega
# From the text: as §1, §2
# T2 sequence (P10635 whole entry): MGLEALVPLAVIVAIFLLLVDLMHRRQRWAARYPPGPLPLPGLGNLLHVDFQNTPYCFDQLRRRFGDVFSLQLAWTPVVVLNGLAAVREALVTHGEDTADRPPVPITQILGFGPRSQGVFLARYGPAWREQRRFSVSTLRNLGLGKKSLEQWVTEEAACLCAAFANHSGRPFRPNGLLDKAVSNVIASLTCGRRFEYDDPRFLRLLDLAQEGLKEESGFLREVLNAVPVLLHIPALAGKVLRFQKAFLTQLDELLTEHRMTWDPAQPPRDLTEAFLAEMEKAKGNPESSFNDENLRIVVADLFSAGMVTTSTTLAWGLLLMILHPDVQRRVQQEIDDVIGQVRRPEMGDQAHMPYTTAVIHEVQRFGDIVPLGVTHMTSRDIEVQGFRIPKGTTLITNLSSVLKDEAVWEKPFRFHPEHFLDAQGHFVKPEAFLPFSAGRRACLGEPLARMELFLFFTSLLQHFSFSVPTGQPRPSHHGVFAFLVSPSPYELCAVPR
# T3 sequence (P08684 whole entry): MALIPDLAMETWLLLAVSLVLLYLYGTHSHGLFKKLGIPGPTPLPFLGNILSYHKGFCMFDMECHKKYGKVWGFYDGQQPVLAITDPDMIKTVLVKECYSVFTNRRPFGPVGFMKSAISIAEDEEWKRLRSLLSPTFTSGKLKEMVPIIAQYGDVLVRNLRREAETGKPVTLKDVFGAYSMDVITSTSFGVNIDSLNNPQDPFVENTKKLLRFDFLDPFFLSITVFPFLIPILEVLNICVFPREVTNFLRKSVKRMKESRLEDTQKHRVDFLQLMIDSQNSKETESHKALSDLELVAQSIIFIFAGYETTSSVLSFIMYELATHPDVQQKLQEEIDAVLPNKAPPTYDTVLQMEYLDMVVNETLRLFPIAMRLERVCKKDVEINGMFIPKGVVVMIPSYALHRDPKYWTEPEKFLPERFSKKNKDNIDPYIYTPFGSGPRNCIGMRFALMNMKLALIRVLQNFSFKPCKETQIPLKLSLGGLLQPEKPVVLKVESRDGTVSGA
smiles,measurement,setting,value
"C#CCOc1ccc(CCNC(=O)C(OCC#C)c2ccc(Cl)cc2)cc1OC (stereo not shown) [MDP, mandipropamid]",EC50 for cytotoxicity,HepaRG cells,245 µg/mL
same,IC50,CYP1A2,28.7 µM
same,IC50 CYP1A2,CYP1A2,11.8 µg/mL
same,IC50,CYP2D6,18.1 µM
same,IC50 CYP2D6,CYP2D6,7.47 µg/mL
same,IC50,CYP3A4,1.32 µM
same,IC50 CYP3A4,CYP3A4,0.544 µg/mL

# From paper PMC12367838, “Relevance of kinetic interactions and co-formulants for plant protection product liver toxicity in vitro” (Archives of Toxicology, 2025)
